Measurements as given in article PMC11898752, “Functional Characterization of β-Glucuronidase Genes Involved in Baicalein Biosynthesis from Scutellaria baicalensis Based on Transcriptome Analysis” (International Journal of Molecular Sciences, 2025).

Assays:
[1] = system: T1, GUS2; assay: HPLC of baicalein formed, Hanes-Woolf plot; format: biochemical, Scutellaria baicalensis; conditions: PBS pH 9, 45 °C, 40 min
T1 construct: full-length ORF in pEASY-Blunt E1, His-tag purified from E. coli BL21(DE3), about 55 kDa on SDS-PAGE

[2] = system: T2, GUS1; assay: HPLC of baicalein formed, Hanes-Woolf plot; format: biochemical, Scutellaria baicalensis; conditions: PBS pH 9, 45 °C, 40 min
T2 construct: full-length ORF in pEASY-Blunt E1, His-tag purified from E. coli BL21(DE3), about 60 kDa on SDS-PAGE

In the case of `O=C(O)[C@H]1O[C@@H](Oc2cc3oc(-c4ccccc4)cc(=O)c3c(O)c2O)[C@H](O)[C@@H](O)[C@@H]1O` [baicalin], the Km [1] is reported as 0.2732 mg/mL and the Km [2] is reported as 0.2826 mg/mL.
